Here are results for one molecule from patent publication US20220162257A1, “3ALPHA, 5BETA-NEUROACTIVE STEROIDS FOR THE TREATMENT OF EPILEPSY AND SEIZURE DISEASES” (USTAV ORGANICKE CHEMIE A BIOCHEMIE AV CR, V. V. I., priority 2019, published 2022).

Experiment [1] deals with PTZ-induced seizures in zebrafish (Danio rerio). Description: pentetrazol (PTZ)-induced seizures in zebrafish larvae. Format: in vivo. The conditions noted are these: 7 dpf larvae, PTZ 5 mmol/L. As for the experimental part:
Adults wild-type (strain AB) zebrafish (Danio rerio) were maintained at 28-29° C. on a light cycle of 14 h light:10h dark (lights on at 7 am; lights off at 9 pm) at ZeClinics animal facility (Barcelona). All procedures involving animals and their care were conducted accordingly to CEA-OH/9421/2 authorization from Government of Catalonia. Embryos obtained by pairwise mating were raised in E3 media at the controlled temperature of 28.5° C. until 7 days post-fertilization (dpf) when the experiments were performed.
The anticonvulsant activity of the claimed compounds on the nervous system of zebrafish (Danio rerio). This test is the modern alternative to tests in adult animals as Danio rerio is very versatile organism that has a number of physiological similarities to mammals, including humans (Expert Opin. Drug Metab. Toxicol. 2009, 5, 393). Steroidal compounds were tested in three concentrations (1, 3 and 5 μmol.L^−1) on 7 days post-fertilization (dpf) wild-type larvae. As a negative control, sibling larvae were incubated with DMSO 1%, which allows us to detect behavioral alterations of PTZ treated larvae. Seizures were induced by treatment of pentetrazol (PTZ) at the dose 5 mmol.L^−1. Commercially available anti-convulsant drug Topiramate was used as comparator. Results were analyzed with GraphPad Prism software and statistical significance is assessed by the One-way ANOVA statistical analysis followed by Tukey's multiple comparisons test. The zebrafish larvae locomotion and response to visual stimuli are traced and analyzed by the EthoVision XT 12 software and the DanioVision device from Noldus Information Technologies, Wageningen, The Netherlands.
This closed system consists of a camera placed above a chamber with circulating water and a temperature sensor that is set at 28° C. Individualized larvae in a 48-wells plate are placed in the chamber, which can provide different stimuli (light/dark environment, tapping, sound) controlled by the software. Prior to each experiment, larvae were left for 10 minutes in dark for acclimation, then predetermined series of alternating dark and light environment are presented to the larvae. The final experimental protocol is divided in three main part: first a 15 minutes step with light on, then a series of 5 short flashes of light to induce epileptic seizures and finally a 25 minutes dark/light alternating environments phase. Different sets of information can be extrapolated from the different phases: while the first step is useful to detect changes in the total larvae locomotion, the second part allows us to analyze the larval response to a seizure-inducing visual stimulus and measure the seizure characteristics: the maximum velocity and the number of angles turns (specific of seizure erratic movement). The final phase is useful to detect anomalies in larval movement and deviations from the stereotyped behavior (natural locomotor behavior of zebrafish is active in dark and immobile in light). The anticonvulsant effect of compounds was studied at doses of […] for the compound shown in Example 1, Example 2 and Example 3.

Experiment [2] deals with NMDA lesion of the dorsal hippocampus in male rats. Description: bilateral excitotoxic NMDA lesion of the dorsal hippocampus. Particulars: 1 mg/kg i.p. 5 minutes after NMDA lesion, evaluated 24 h. It counts as in vivo, rat. On the procedure:
The tissue damage is induced by infusing NMDA (25 mmol.L^−1) into the dorsal hippocampus in the male rats. The figures in panel (FIG. 9A) show representative images of brain slices of control animals, in panel (FIG. 9B) the group of animals which were administered the solutions containing NMDA into dorsal hippocampus (NMDA lesion) and i.p. treated by (2-hydroxypropyl)-β-cyclodextrin (CDX) and in panel (FIG. 9C) brain slices of the animals, with NMDA lesions of the dorsal hippocampus and i.p. treated by the Compound of Example 1 at a dose of 1 mg/kg dissolved in CDX.
The neuroprotective effect of the Compound from Example 1 was tested in the model of bilateral excitotoxic lesion of the dorsal hippocampus. The procedure was performed according to literature (Neuropharmacology 2011, 61, 61). This model simulates the overstimulation of NMDA receptors that occurs in the number of pathophysiological states, leading to calcium flow into the neuron's and, consequently, to apoptosis […] necrosis. Clinically, this phenomenon is manifested by neurodegeneration and CNS damage. Rats were randomly divided into three groups. […] Histological damage, e.g. the neuroprotective effect of Compound from Example 1 was evaluated by staining damaged neurons with Fluoro Jade B (Merck Millipore, Catalog Number AG310-30MG), and evaluated areas included: hippocampus-DG, hilus, CA3, CA1.

As for `CC(=O)[C@H]1CC[C@H]2[C@@H]3CC[C@@H]4C[C@H](OC(=O)C5CCC(=O)N5)CC[C@]4(C)[C@H]3CC[C@]12C` (stereo partly drawn) [Example 1, (3R,5R,8R,9S,10S,13S,14S,17S)-17-Acetyl-10,13-dimethylhexadecahydro-1H-cyclopenta[a]fenantren-3-yl 5-oxopyrrolidine-2-carboxylate], the “epileptiform locomotor activity in the dark phase/light test, sedation” value in experiment [1] (doses of 1, 3 and 5 mg/kg) was “decreased epileptiform locomotor activity in the dark phase/light test without causing sedation”. For the same molecule, the “locomotor activity epileptiform induced by PTZ (spontaneous locomotor activity, maximum velocity, angle turns)” value in experiment [1] (doses of 1, 3 and 5 mg/kg (1, 3 and 5 μmol/L in the source)) is “significantly reduced the locomotor activity epileptiform induced by PTZ”. Further, in experiment [2], the “dorsal hippocampus damage (Fluoro Jade B staining)” value is “significant reduction in the dorsal hippocampus damage”.
